Experimental data as given in patent publication US20090325952A1, “PYRAZOLO[3,4-B]PYRIDINE COMPOUNDS, AND THEIR USE AS PDE4 INHIBITORS” (Glaxo Group Limited, priority 2006, published 2009).

Target: T1, PDE6 (from bovine retina) (Bos taurus, UniProt P11541+P23439)
T1 construct: PDE6 can be purified from bovine retina; from tissue; host or cells: bovine retina
T1 sequence (P11541 2-856 limits assumed): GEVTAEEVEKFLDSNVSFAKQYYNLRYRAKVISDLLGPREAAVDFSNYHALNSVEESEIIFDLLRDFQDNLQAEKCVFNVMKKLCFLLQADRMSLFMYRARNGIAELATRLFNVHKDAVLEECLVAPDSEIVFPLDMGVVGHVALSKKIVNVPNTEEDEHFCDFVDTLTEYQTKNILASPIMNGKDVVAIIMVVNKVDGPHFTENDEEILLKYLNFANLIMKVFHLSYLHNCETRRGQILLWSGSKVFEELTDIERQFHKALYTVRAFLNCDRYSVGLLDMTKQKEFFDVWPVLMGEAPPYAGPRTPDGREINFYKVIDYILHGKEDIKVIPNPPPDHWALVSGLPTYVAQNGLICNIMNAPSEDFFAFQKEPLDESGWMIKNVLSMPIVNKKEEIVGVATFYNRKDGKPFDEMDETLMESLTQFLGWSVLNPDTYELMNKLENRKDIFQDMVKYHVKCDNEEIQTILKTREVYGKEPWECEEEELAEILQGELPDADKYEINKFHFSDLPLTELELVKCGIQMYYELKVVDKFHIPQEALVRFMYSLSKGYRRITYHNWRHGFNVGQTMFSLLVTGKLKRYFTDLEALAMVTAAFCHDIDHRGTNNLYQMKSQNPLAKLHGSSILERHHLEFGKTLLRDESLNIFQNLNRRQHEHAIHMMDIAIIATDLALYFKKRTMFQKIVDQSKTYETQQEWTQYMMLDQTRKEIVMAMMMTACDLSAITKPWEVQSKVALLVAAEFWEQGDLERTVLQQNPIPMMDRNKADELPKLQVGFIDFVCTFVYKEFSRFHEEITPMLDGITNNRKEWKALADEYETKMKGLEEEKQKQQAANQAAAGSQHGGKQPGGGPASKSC
T1 sequence (P23439 2-850 limits assumed): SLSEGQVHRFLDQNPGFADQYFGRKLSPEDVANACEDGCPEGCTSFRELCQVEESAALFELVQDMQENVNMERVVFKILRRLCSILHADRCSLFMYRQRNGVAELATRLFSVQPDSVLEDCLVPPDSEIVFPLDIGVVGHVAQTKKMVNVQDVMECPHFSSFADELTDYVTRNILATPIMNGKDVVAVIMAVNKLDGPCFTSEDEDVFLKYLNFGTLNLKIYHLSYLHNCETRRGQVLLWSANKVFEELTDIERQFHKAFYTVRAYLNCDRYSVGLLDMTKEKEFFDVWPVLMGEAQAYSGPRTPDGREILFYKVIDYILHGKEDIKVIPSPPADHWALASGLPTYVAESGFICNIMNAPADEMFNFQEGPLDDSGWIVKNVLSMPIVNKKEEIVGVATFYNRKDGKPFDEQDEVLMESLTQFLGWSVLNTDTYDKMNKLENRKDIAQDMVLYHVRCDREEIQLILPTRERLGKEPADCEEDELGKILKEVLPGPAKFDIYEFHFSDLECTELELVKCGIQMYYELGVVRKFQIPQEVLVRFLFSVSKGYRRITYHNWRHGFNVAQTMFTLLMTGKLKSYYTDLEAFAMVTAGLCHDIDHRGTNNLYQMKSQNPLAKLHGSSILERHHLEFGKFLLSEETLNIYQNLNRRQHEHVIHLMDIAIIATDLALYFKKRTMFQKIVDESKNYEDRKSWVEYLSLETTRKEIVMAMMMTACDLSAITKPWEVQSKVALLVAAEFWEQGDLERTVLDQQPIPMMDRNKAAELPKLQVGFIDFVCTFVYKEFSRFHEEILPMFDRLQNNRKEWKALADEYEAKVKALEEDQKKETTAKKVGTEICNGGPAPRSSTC
Assay: Inhibition of PDE6 activity (FP or SPA assays)
Format: biochemical
Details: selectivity PDE4B over PDE6
Source text: PDE6 can be purified from bovine retina as described by: P. Catty and P. Deterre, “Activation and solubilization of the retinal cGMP-specific phosphodiesterase by limited proteolysis”, Eur. J. Biochem., 1991, 199, 263-269; A. Tar et al. “Purification of bovine retinal cGMP phosphodiesterase”, Methods in Enzymology, 1994, 238, 3-12; and/or D. Srivastava et al. “Effects of magnesium on cyclic GMP hydrolysis by the bovine retinal rod cyclic GMP phosphodiesterase”, Biochem. J, 1995, 308, 653-658.
The ability of compounds to inhibit catalytic activity at PDE4B or 4D (human recombinant), PDE3 (from bovine aorta), PDE5 (human recombinant) or PDE6 (from bovine retina) can optionally be determined by Scintillation Proximity Assay (SPA) in a 96-well format.
Test compounds (as a solution in DMSO, suitably about 2 microlitre (ul) volume of DMSO solution) are preincubated at ambient temperature (room temperature, e.g. 19-23° C.) in Wallac Isoplates (code 1450-514) with PDE enzyme in 50 mM Tris-HCl buffer pH 7.5, 8.3 mM MgCl2, 1.7 mM EGTA, 0.05% (w/v) bovine serum albumin for 10-30 minutes (usually 30 minutes). The enzyme concentration is adjusted so that no more than 20% hydrolysis of the substrate defined below occurs in control wells without compound, during the incubation. […] Bound radioactive product is measured using a WALLAC TRILUX 1450 Microbeta scintillation counter. […]

CCc1nc2c(cnn2CC)c(NC2CCOCC2)c1CNC(=O)c1ccc(NC(=O)CCCCCCCN(C)CCO)cc1 [Example 1B, N-{[1,6-diethyl-4-(tetrahydro-2H-pyran-4-ylamino)-1H-pyrazolo[3,4-b]pyridin-5-yl]methyl}-4-({8-[(2-hydroxyethyl)(methyl)amino]octanoyl}amino)benzamide]
PDE4B inhibition compared with PDE6 inhibition (pIC50 values): inhibit PDE4B more strongly than they inhibit PDE3, PDE5 and PDE6
